Measurements reported in patent US20240158392A1 (Janssen Biotech, Inc., priority 2021, published 2024).
Where two headings read alike, the source gives them in different places.

Molecular target: SIK2 (Homo sapiens, UniProt Q9H0K1)
Experiment: SIK2 Enzymatic Assay High Version 2 (High ATP)
Assay type: biochemical
Method in brief: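 At room temperature, enzyme (6 nM, 2× final) was preincubated with compound for 30 min, then 6 mM ATP and 400 μM HDAC5tide (both 2× final) were added for 2 h. ADP formed was measured by ADP-Glo Max (2 h reagent, 1 h detection) using luminescence.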

[1] = enzyme 6 nM, 6 mM ATP and 400 μM HDAC5tide (each 2× final concentration), 30 minutes pre-incubation, 2 hours, ADP-Glo Max luminescence, read-out: SIK2 high ATP IC50 (μM) (Test Example 2)

Chain of SIK2 (Q9H0K1 whole entry, species assumed): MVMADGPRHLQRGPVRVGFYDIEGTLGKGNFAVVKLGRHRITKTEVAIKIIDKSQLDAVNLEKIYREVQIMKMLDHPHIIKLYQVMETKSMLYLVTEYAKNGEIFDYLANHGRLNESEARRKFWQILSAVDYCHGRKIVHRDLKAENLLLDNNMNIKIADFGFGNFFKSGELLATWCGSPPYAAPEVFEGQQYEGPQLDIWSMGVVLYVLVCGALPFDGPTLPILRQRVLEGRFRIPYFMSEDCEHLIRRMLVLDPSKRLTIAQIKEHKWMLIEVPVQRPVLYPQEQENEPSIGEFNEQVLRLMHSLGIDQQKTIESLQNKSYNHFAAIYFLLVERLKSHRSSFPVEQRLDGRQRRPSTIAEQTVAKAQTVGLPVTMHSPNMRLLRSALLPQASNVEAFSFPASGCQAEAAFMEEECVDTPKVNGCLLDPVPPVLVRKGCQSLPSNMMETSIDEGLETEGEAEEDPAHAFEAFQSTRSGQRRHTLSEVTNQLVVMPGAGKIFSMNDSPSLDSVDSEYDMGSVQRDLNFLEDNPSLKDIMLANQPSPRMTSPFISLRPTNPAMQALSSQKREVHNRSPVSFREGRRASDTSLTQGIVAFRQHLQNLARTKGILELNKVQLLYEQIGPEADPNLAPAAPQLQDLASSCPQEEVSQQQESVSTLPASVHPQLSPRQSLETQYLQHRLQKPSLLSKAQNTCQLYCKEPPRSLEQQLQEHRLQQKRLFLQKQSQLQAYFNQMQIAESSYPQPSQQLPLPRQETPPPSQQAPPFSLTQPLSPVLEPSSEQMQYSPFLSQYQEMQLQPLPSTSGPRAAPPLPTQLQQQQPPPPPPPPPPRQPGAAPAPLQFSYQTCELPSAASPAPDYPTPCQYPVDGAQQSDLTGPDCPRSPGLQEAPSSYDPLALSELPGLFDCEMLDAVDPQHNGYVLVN

SMILES | IC50 [1] | IC50
COC1(COc2cnc(C)cc2-c2ccn3nc(NC(=O)C4CC4)cc3c2)CNC1 [Example 233, N-[5-[5-[(3-methoxyazetidin-3-yl)methoxy]-2-methyl-4-pyridyl]pyrazolo[1,5-a]pyridin-2-yl]cyclopropanecarboxamide] | 0.00309 µM | 
Cc1cc(-c2ccn3nc(Nc4ccnc(C)n4)cc3c2)c(O[C@H]2C[C@H]3COC[C@@H](C2)N3S(C)(=O)=O)cn1 [Example 630] |  | 1.18 µM
Cc1cc(-c2ccn3nc(Nc4cc(C)nc(C)n4)cc3c2)c(OC[C@@H]2CC[C@@H](O)CO2)cn1 (single isomer, unassigned) [Example 346, (3*R,6*S)-6-[[4-[2-[(2,6-dimethylpyrimidin-4-yl)amino]pyrazolo[1,5-a]pyridin-5-yl]-6-methyl-3-pyridyl]oxymethyl]tetrahydropyran-3-ol] |  | 0.0167 µM
Cc1cc(-c2cn3cc(Nc4cncc(C)n4)nc3cn2)c(O[C@H]2C[C@H]3COC[C@@H](C2)N3)cn1 [Example 321, 6-[2-methyl-5-[[(1S,5R)-3-oxa-9-azabicyclo[3.3.1]nonan-7-yl]oxy]-4-pyridyl]-N-(6-methylpyrazin-2-yl)imidazo[1,2-a]pyrazin-2-amine] |  | < 0.000847 µM
CN1[C@@H]2COC[C@H]1C[C@@H](Oc1ccc(C(F)F)cc1-c1ccn3nc(NC(=O)C4CC4)cc3c1)C2 [Example 482, N-[5-[5-(difluoromethyl)-2-[[(1R,5S)-9-methyl-3-oxa-9-azabicyclo[3.3.1]nonan-7-yl]oxy]phenyl]pyrazolo[1,5-a]pyridin-2-yl]cyclopropanecarboxamide] |  | 0.00424 µM
Cc1cc(-c2ccn3nc(Nc4cc(C(F)(F)F)ccn4)cc3c2)c(O[C@H]2C[C@H]3COC[C@@H](C2)N3C)cn1 [Example 413, 5-[2-methyl-5-[[(1R,5S,7s)-9-methyl-3-oxa-9-azabicyclo[3.3.1]nonan-7-yl]oxy]-4-pyridyl]-N-[4-(trifluoromethyl)-2-pyridyl]pyrazolo[1,5-a]pyridin-2-amine] |  | < 0.000847 µM

More lines, main results first:

IC50 [1] | SMILES | IC50
< 0.000847 µM | CC#Cc1cc(-c2ccn3nc(NC(=O)C4CC4)cc3c2)c(OCC2(F)CNC2)cn1 [Example 434, N-[5-[5-[(3-fluoroazetidin-3-yl)methoxy]-2-prop-1-ynyl-4-pyridyl]pyrazolo[1,5-a]pyridin-2-yl]cyclopropanecarboxamide] | 
0.00809 µM | Cc1cc(-c2ccn3nc(Nc4cnc5cc[nH]c5n4)cc3c2)c(OCC(C)(C)O)cn1 [Example 291, 2-methyl-1-[[6-methyl-4-[2-(5H-pyrrolo[2,3-b]pyrazin-3-ylamino)pyrazolo[1,5-a]pyridin-5-yl]-3-pyridyl]oxy]propan-2-ol] | 
0.0193 µM | Cc1cc(-c2ccn3nc(Nc4cc(C)nc(C)n4)cc3c2)c(OC[C@@](C)(N)C(F)(F)F)cn1 (single isomer, unassigned) [Example 270, (*R)-5-[5-(2-Amino-3,3,3-trifluoro-2-methyl-propoxy)-2-methyl-4-pyridyl]-N-(2,6-dimethylpyrimidin-4-yl)pyrazolo[1,5-a]pyridin-2-amine] | 
0.0829 µM | Cc1cc(-c2ccn3nc(Nc4cc(C)nc(C)n4)cc3c2)c(O[C@H]2CCS(=O)(=O)NC2)cn1 (single isomer, unassigned) [Example 610, (*S)—N-(2,6-dimethylpyrimidin-4-yl)-5-[5-(1,1-dioxothiazinan-4-yl)oxy-2-methyl-4-pyridyl]pyrazolo[1,5-a]pyridin-2-amine] | 
0.016 µM | Cc1cc(-c2ccn3nc(Nc4cc(C)nc(C)n4)cc3c2)c(OC[C@@H]2COC3(CCCC3)O2)cn1 (single isomer, unassigned) [Example 543, (*R)—N-(2,6-dimethylpyrimidin-4-yl)-5-[5-(6,9-dioxaspiro[4.4]nonan-8-ylmethoxy)-2-methyl-4-pyridyl]pyrazolo[1,5-a]pyridin-2-amine] | 
